Data taken from US7037502B2, “Peptide with the amino acid sequence of KVLDGQDP having anti-inflammatory properties” (priority 2001, dated 2006).
Entries after “also recorded” stand apart in the source; their conditions may differ. Marks after values point to notes of the source that are not given here.

Tests used:
[1] = target: T1, TGase (Guinea pig liver, EC 2.3.2.13) (UniProt P08587); assay: Inhibitory effect of synthetic peptides on TGase in vitro ([14C]-putrescine incorporation into succinylated casein); assay type: biochemical; details: peptides 1×10^−8 M, preincubated 15 min at 37° C.; compared with the peptides known as PLA2 inhibitors
T1 construct: 0.001 U TGase (Guinea pig liver, EC 2.3.2.13, Sigma); purchased Sigma; host or cells: guinea pig liver
T1 sequence (P08587 1-690): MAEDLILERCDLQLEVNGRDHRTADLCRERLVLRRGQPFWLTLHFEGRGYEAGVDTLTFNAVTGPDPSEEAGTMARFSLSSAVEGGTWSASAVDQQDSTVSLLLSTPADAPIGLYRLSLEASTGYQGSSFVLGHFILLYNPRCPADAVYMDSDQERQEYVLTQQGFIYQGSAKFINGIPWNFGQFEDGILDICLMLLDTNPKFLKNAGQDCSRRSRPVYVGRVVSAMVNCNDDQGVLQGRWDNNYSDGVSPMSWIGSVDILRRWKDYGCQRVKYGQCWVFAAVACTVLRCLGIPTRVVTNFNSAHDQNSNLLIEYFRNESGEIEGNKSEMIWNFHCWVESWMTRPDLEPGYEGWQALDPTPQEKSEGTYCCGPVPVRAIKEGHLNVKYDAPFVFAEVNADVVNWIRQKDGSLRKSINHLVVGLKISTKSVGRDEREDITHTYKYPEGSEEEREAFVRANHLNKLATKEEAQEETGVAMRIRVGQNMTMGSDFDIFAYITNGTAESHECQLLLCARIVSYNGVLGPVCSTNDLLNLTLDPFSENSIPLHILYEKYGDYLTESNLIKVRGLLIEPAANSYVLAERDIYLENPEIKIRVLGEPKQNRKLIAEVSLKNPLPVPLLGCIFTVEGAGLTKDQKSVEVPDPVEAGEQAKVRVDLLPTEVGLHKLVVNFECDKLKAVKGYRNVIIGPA
Description: It is needed to inhibit the activity of TGase in order to secure maximum anti-inflammatory activity since the TGase activates PLA2. A established TGase assay method was used to determine the enzymatic activity by measuring the incorporation of [1,4]^14C-putrescine into succinylated casein (Folk J E., et al., Transglutaminase. Methods in Enzymol 1985; 113; 358–375).
To determine the inhibitory activity, 0.001 U TGase (Guinea pig liver, EC 2.3.2.13, Sigma; 1.0 unit will catalyze the formation of […] of hydroxamate per min. from N- -CBZ-Gln-Gly and hydroxylamine at pH 6.0 at 37° C.) was preincubated for 15 minutes with the synthetic peptides in 0.1 ml (1×10^−8 M) at 37° C. before adding the TGase/peptide mixture to the substrate solution (0.5 ml) containing 0.1 M Tris-acetate pH 7.5, 1% succinylated casein, 1 mM EDTA, 10 mM CaCl2, 0.5% lubrol PX, 5 mM DTT, 0.15M NaCl and 0.5 mCi ^14C-putrescine [Dupont-New England Nuclear, Wilmington, […] (118 Ci/mole)]. […] The TCA-insoluble precipitates were collected onto GF/A glass fiber filters, washed with cold 5% TCA, dried and counted. […]
For inhibitory test of the peptides given, each value is the mean of data from three separate experiments (S.D.<10%). The value of TGase activity incubated without peptides was determined as 100% TGase activity that is 4.89 pmole putrescine/hr. % Inhibition was shown in FIG. 2.

[2] = tested on: eosinophil infiltration of conjunctiva; assay: Allergic conjunctivitis to ragweed in guinea pig: histology, eosinophil count in conjunctiva; assay type: in vivo, Hartley female guinea pig; details: for Anti-inflammatory activity, overall conclusion in words: allergic conjunctivitis model in guinea pig, summary of Example 2; for Statistical evaluation of eosinophil count (Mann-Whitney test), P compared to Dexamethasone / Statistical evaluation of eosinophil count (Mann-Whitney test), P compared to Livostine / Statistical evaluation of eosinophil count (Mann-Whitney test), P compared to No treatment group: eosinophils in three fields of conjunctiva (×400), 12 eyes per group, eye drops
Method: The peptides of the present invention were analyzed in experimental model of allergic conjunctivitis to ragweed (giant ragweed; Ambrosia trifida) in guinea pig. Hartley strain of guinea pig was selected according to previous reports of conjunctival anaphylaxis (Calonge M., et al., Acta Ophthalmol 68; 470–476, 1990) and females were chosen based on the sex dimorphism of ocular mucosal immunity with the protective role of male hormones (Saruya S., et al., Act Soc Ophthalmol Jap 72; 833–845, 1968). The conjunctival redness and edema are main signs of seasonal allergic conjunctivitis and eosionphil infiltration is the hallmark of the conjunctival histology in patients with allergic conjunctivitis (Abelson M B., et al., Arch Ophthalmol. 101; 555–556, 1983; Butrus S I., et al., Int. Ophthalmol. Clin. 28; 324–328, 1988)
86 Hartley female guinea pigs, 200–250 g were housed in the animal facilities of the Asan Institute for Life Sciences (Korea), given guinea pig chow and water ad libitum, and cared for in accordance with the Declaration of Helsinki and the National Institute of Health Guide to the Care and Use of the Laboratory Animals (Korea).
On day 15, immunized guinea pigs were divided 14 groups, 6 for each group. 11 anti-inflammatory peptides including new recombinants, dexamethasone eye drop (Maxidex, 0.1% dexamethasone, Alcon) and anti-histamine eye drop (Livostin, levocabastine, Janssen) were used for 13 groups, and no treatment for one group. Normal controls were employed as 6 non-immunized and non-treated guinea pigs. […] All the procedures were followed experimental model of allergic conjunctivitis described by Merayo-Lloves et al (Experimental model of allergic conjunctivitis to ragweed in guinea pig. Curr. Eye Res. 14; 487–494, 1995).
Anti-inflammatory peptides were resolved in sterile saline (100 μmol/40 μl concentration). All peptides and dexamethasone eye solutions were challenged 3 hour prior to the last pollen application on day 15, 10 minutes after pollen application, and 4 times thereafter at the 3 hour interval.
The orbits were excentrated after the animals were killed with CO2 asphyxia, and specimens were prepared for light microscopic examination. Sectioned specimens were stained with hematoxylin-eosin.
Eosinophils in the standardized fields of conjunctival epithelium, the immediate subepithelial, and the stroma were counted in three non-consecutive fields (magnification ×400) for each treatment in each experiment (12 eyes in each group).

| Sequence | TGase activity (FIG. 2), result in words [1] | Anti-inflammatory activity, overall conclusion in words ([2]; listed as SEQ ID NO:2) | Statistical evaluation of eosinophil count (Mann-Whitney test), P compared to Dexamethasone [2] | Statistical evaluation of eosinophil count (Mann-Whitney test), P compared to Livostine [2] | Statistical evaluation of eosinophil count (Mann-Whitney test), P compared to No treatment group [2] | Histological signs (eosinophil infiltration), result in words ([2]; n=12, P<0.01, SD<10%, Mann-Whitney test, listed as SEQ ID NO:2) | Anti-inflammatory activity, overall conclusion in words [2] |
| --- | --- | --- | --- | --- | --- | --- | --- |
| KVLDGQDP [Peptide R2, synthetic peptide of the invention] | significantly reduced | excellent anti-inflammatory activity in comparison with other known peptide sequences; also recorded: much higher activity than the steroidal anti-inflammatory dexamethasone | 0.001* | 0.002* | 0.000 | statistically significant difference from other groups; also recorded: the most effective |  |
| KVLDPVKG [Peptide R1, synthetic peptide of the invention] | significantly reduced |  | 0.001 | 0.002 | 0.002 |  | excellent anti-inflammatory activity in comparison with other known peptide sequences |
